For orientation: melting point means the temperature, or range, at which the solid turns liquid.

A short description of one data set: Gel melting temperatures. The data set is classed as physicochemical. The note with it: gel in DMSO:H2O (1:2) at its minimum gelation concentration. The procedure: Melting points were measured for compounds that were gelators in the DMSO:H2O (1:2) solvent system. In general, a compound was dissolved in heated solvent in a small vial at its minimum gelation concentration and transferred into a tube (e.g., an NMR tube) while the mixture was still warm. The tube was sonicated and cooled until a stable gel formed. The tube was immersed in an oil bath and the temperature of the solid-to-liquid phase transition was monitored using a thermometer as the oil bath temperature was changed. Gel melting temperatures are presented in […]

Data set [1] is described as follows: Gelation test in solvents at room temperature. The note with it: for Gelation test result / minimum gelation concentration: room temperature; for MGC in DMSO:H2O (1:2): Table 2. The data set is classed as physicochemical. Also noted: key to Gelation test result: I, insoluble; P, precipitating; S, soluble at ~20 mg/mL; G, gel at room temperature; number is minimum gelation concentration. As for the experimental part:
Gelation tests were performed by adding incremental amounts of compounds to a solvent or solvent system at room temperature and observing the results (i.e., gel formation, solubility of compounds, insolubility of compounds, or formation of a precipitate). […] The term “precipation” means that the compound dissolves upon heating and sonicating, however, it crashes out of solution when the heat is removed.
After the compounds were synthesized, they were screened for gelation properties. […] For the compounds with new chiral centers, they formed gels in aqueous environment preferentially.

Data set [2] is described as follows: Optical micrographs of gels (morphology). Type of data set: physicochemical. The note with it: for morphology of the gel: optical micrographs, FIG. 3. An excerpt: Solvent for 1(a-d) is DMSO:H2O (1:2); solvent for 1(e-f) is EtOH:H2O (1:2).
The EtOH/H2O gel has shown more uniform fibrous structures with an average diameter of 0.5 μm and over 300 μm in length (FIG. 3e, f).

`CCOC(=O)CNC(=O)CN(Cc1ccc(OC)cc1)C(=O)c1ccc(Br)cc1` [Compound 21, Ethyl 2-(2-(N-(4-methoxybenzyl)-4-bromobenzamido)acetamido)acetate] displayed a melting point of 123 to 125 °C. In the data set “Gel melting temperatures”, the “T1, temperature at which gel begins to melt” value (from here on “T1, temperature”) came out at 70 °C; the “T2, temperature at which gel is approximately half melted” value (“T2, temperature” below) was found to be 75 °C; the “T3, temperature at which gel is fully melted” value (shortened to “T3, temperature”) was determined as 81 °C. Further, in data set [1], the “gelation efficiency (in words)” value is “most efficient gelator identified in this study”. For the same compound, in data set [1] (DMSO:H2O (1:1)), the Gelation test result is reported as “G” and the minimum gelation concentration turned out to be 2.5 mg/mL. For the same compound, in data set [1] (DMSO:H2O (1:2)), the Gelation test result was “G”, the minimum gelation concentration stood at 2.0 mg/mL and the “MGC in DMSO:H2O (1:2)” value is on record as 2.0 mg/mL. Also, in data set [1] (EtOH), the Gelation test result was “G” and the minimum gelation concentration is listed as 20.0 mg/mL. Besides, in data set [1] (EtOH:H2O (1:1)), the Gelation test result is recorded as “G” and the minimum gelation concentration amounted to 5.0 mg/mL. Further, in data set [1] (EtOH:H2O (1:2)), the Gelation test result is listed as “G” and the minimum gelation concentration is reported as 2.8 mg/mL. Also, the Gelation test result in data set [1] (H2O) was “S (S, soluble at ~20 mg/mL)”. Moreover, the Gelation test result in data set [1] (Hexane) is recorded as “I”. In data set [2] (EtOH/H2O gel), the “average diameter of fibrous structures” value stood at 0.5 μm and the “length of fibrous structures” value is “over 300 μm”. The “morphology of the gel” value in data set [2] was “very long and uniform fibrous assemblies”.
Take `CCOC(=O)CNC(=O)CN(C(=O)c1ccc(Br)cc1)C1C(OC)OC2COC(c3ccccc3)OC2C1O` (stereo not shown) [Compound 26, Ethyl-2-(2-(4-bromo-N-(8-hydroxy-6-methoxy-2-phenyl-hexahydropyrano[3,2-d][1,3]dioxin-7-yl)benzamido)acetamido)acetate]: the melting point was in the range of 207 to 209 °C. Also, in the data set “Gel melting temperatures”, the “T1, temperature” value is 110 °C; the “T2, temperature” value was found to be 118 °C; the “T3, temperature” value worked out at 128 °C. Also, the “gelation efficiency (in words)” value in data set [1] is on record as “more efficient gelator”. Further, in data set [1] (DMSO/H2O (1:2)), the “concentration at which gel formed” value was 0.66 wt %. Further, in data set [1] (DMSO:H2O (1:1)), the Gelation test result is reported as “G” and the minimum gelation concentration was determined as 10.0 mg/mL. Besides, in data set [1] (DMSO:H2O (1:2)), the Gelation test result is given as “G”, the minimum gelation concentration amounted to 6.6 mg/mL and the “MGC in DMSO:H2O (1:2)” value came to 6.6 mg/mL. In data set [1] (EtOH), the Gelation test result was “I”. In addition, in data set [1] (EtOH:H2O (1:1)), the Gelation test result is listed as “G” and the minimum gelation concentration is on record as 20.0 mg/mL. For the same compound, in data set [1] (EtOH:H2O (1:2)), the Gelation test result is on record as “G” and the minimum gelation concentration worked out at 10.0 mg/mL. In addition, the Gelation test result in data set [1] (H2O) is “P”. The Gelation test result in data set [1] (Hexane) was “I”. In data set [2], the “morphology of the gel” value is “thinner fibrous assembly”.
Regarding `O=C(CN(Cc1ccccc1)C(=O)c1ccc([N+](=O)[O-])cc1)NC1CCCCC1` [Compound 18, N-benzyl-N-(2-(cyclohexylamino)-2-oxoethyl)-4-nitrobenzamide], the melting point was 190 to 192 °C. In addition, in the data set “Gel melting temperatures”, the “T1, temperature” value came out at 91 °C; the “T2, temperature” value was 95 °C; the “T3, temperature” value amounted to 110 °C. Moreover, in data set [1], the “gelation efficiency (in words)” value is listed as “not a very efficient gelator”. Moreover, the “concentration at which gel formed” value in data set [1] (DMSO aqueous mixture) is reported as 2 wt %. Besides, in data set [1] (DMSO:H2O (1:1)), the Gelation test result is given as “G” and the minimum gelation concentration is 20.0 mg/mL. Further, in data set [1] (DMSO:H2O (1:2)), the Gelation test result is “G”, the minimum gelation concentration was 10.0 mg/mL and the “MGC in DMSO:H2O (1:2)” value is 10.0 mg/mL. For the same compound, the Gelation test result in data set [1] (EtOH) is “P”. Further, in data set [1] (EtOH:H2O (1:1)), the Gelation test result is “G” and the minimum gelation concentration was found to be 20.0 mg/mL. Moreover, the Gelation test result in data set [1] (EtOH:H2O (1:2)) is recorded as “P”. Moreover, the Gelation test result in data set [1] (H2O) is “P”. Further, in data set [1] (Hexane), the Gelation test result is on record as “I”. Further, in data set [2], the “morphology of the gel” value is “rod or sheet like feature”.

These data come from US20140296354A1, “SYNTHESIS OF PEPTOID-BASED SMALL MOLECULAR GELATORS FROM MULTIPLE COMPONENT REACTIONS” (OLD DOMINION UNIVERSITY RESEARCH FOUNDATION, priority 2013, published 2014).
